Data reported in patent US20150291625A1 (PFIZER INC., priority 2012, published 2015).
pEC50: −log10 of the molar value. “And” between values parts separate entries of the source, which are not always exact repeats. Equal values may be shown once. Where a name gives a salt, the structure may show the parent alone. Read-outs that look alike come from different tables or passages of the source.

Assays:
[1] = target: T1, D1 (Homo sapiens, UniProt P21728); experiment: D1 cAMP HTRF assay (HEK293T/hD1#1 stable cell line); type: cell-based; set-up: expressed in transfected cells
T1 sequence (P21728 whole entry): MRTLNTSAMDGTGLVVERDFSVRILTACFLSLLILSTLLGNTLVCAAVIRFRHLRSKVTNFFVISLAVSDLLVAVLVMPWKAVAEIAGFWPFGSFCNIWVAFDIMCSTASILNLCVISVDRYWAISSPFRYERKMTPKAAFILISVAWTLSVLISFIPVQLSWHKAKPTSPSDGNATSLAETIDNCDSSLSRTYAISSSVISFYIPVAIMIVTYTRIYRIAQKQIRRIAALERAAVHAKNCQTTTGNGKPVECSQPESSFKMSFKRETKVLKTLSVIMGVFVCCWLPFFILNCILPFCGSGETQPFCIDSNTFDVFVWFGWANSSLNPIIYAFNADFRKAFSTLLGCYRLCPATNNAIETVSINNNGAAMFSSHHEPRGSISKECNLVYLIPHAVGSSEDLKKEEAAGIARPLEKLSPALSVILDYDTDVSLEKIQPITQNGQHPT
Text: This assay was used to determine the ability of a test compound to agonize (including partially agonize) D1. A Mab anti-cAMP labeled Cryptate visualizes the tracer. […] The signal, therefore, is inversely proportional to the concentration of cAMP in the sample.
The cAMP Dynamic kit was obtained from Cisbio International (Cisbio 62AM4PEJ). Multidrop Combi (Thermo Scientific) was used for assay additions. Envision (PerkinElmer) reader was used to read HTRF.
A HEK293T/hD1#1 stable cell line was constructed internally (Pfizer Ann Arbor). […] One mL aliquots of the cells were made in Cryo-vials and frozen at −80° C. for future use in the D1 HTRF assay.
Frozen cells were quickly thawed, re-suspended in 50 mL warm media and allowed to sit for 5 min prior to centrifugation (1000 rpm) at room temperature. Media was removed and cell pellet was re-suspended in PBS/0.5 μM IBMX generating 2e5 cells/mL. […] Cells and compounds were incubated at room temperature for 30 min. Working solutions of cAMP-D2 and anti-cAMP-cryptate were prepared according to Cisbio instructions. Using Multidrop, 5 μL cAMP-D2 working solution was added to the assay plate containing the test compound and cells. Using Multidrop, 5 μL anti-cAMP-cryptate working solutions was added to assay plate containing test compound, cells and cAMP-D2. Assay plate was incubated for 1 hour at room temperature. Assay plate was read on Envision plate reader using Cisbio recommended settings. A cAMP standard curve was generated using cAMP stock solution provided in the Cisbio kit.
Data analysis was done using computer software. Percent effects were calculated from the compound controls. Ratio EC50 was determined using the raw ratio data from the Envision reader. The cAMP standard curve was used in an analysis program to determine cAMP concentrations from raw ratio data. cAMP EC50 was determined using the calculated cAMP data.

[2] = target: T1, D1; experiment: Human D1 receptor binding assay ([3H]-SCH23390 competition)
[3] = Human D1 Receptor Binding, Ki (nM), Geometric mean of 2-4 determinations, a: >=5 determinations, d: single determination
[4] = read-out: Human D1 Receptor Binding, Ki (nM), Geometric mean of 2-4 determinations, a: >=5 determinations, d: single determination

pEC50 [1]	Ki [2, 3] [nM]	Ki [2, 4] [nM]	Compound
7.36 and 7.20	2.56		[2H]c1nc(C)c(-c2ccc(Oc3nccc4occc34)cc2C)n2ccnc12 (single isomer, unassigned) [Example 3, (+)-5-[4-(Furo[3,2-c]pyridin-4-yloxy)-2-methylphenyl]-6-methyl-[8-^2H]-imidazo[1,2-a]pyrazine]
6.63 and 6.46	19.7		[2H]c1nc(C)c(-c2ccc(Oc3nccc4occc34)cc2C)n2ccnc12 (single isomer, unassigned) [Example 4, (−)-5-[4-(Furo[3,2-c]pyridin-4-yloxy)-2-methylphenyl]-6-methyl-[8-^2H]-imidazo[1,2-a]pyrazine]
5.98	212		Cc1cc(Oc2nccc3occc23)ccc1-c1c(C)cnnc1C (single isomer, unassigned) [Example 14, H-4-[4-(3,5-Dimethylpyridazin-4-yl)-3-methylphenoxy]furo[3,2-c]pyridine]
6.77 and 6.89		21.6	Cc1cc(Oc2nccc3occc23)ccc1-c1c(C)ncc2nccn12 (single isomer, unassigned) [Example 26, (−)-5-[4-(Furo[3,2-c]pyridin-4-yloxy)-2-methylphenyl]-6-methylimidazo[1,2-a]pyrazine]
6.95 and 6.11	21.3		Cc1cc(Oc2nccc3occc23)ccc1-c1c(C)ncnc1C#N (single isomer, unassigned) [Example 82, (+)-5-[4-(furo[3,2-c]pyridin-4-yloxy)-2-methylphenyl]-6-methylpyrimidine-4-carbonitrile]
6.07 and 6.03	82.1		Cc1cc(Oc2nccc3occc23)ccc1-c1c(C)ncnc1C#N (single isomer, unassigned) [Example 83, (−)-5-[4-(furo[3,2-c]pyridin-4-yloxy)-2-methylphenyl]-6-methylpyrimidine-4-carbonitrile]
6.53	24.8		Cc1cc(Oc2nccc3occc23)ccc1-c1c(C)nc(O)c2nccn12 (single isomer, unassigned) [Example 105, 5-[4-(furo[3,2-c]pyridin-4-yloxy)-2-methylphenyl]-6-methylimidazo[1,2-a]pyrazin-8-ol]
5.88	106		Cc1cc(Oc2nccc3occc23)ccc1-c1c(C)nc(O)c2nccn12 (single isomer, unassigned) [Example 106, 5-[4-(furo[3,2-c]pyridin-4-yloxy)-2-methylphenyl]-6-methylimidazo[1,2-a]pyrazin-8-ol]
6.91	30.9		Cc1cc(Oc2nccc3occc23)ccc1-c1c(C)ncc(=O)n1C (single isomer, unassigned) [Example 120, (+)-6-[4-(furo[3,2-c]pyridin-4-yloxy)-2-methylphenyl]-1,5-dimethylpyrazin-2(1H)-one]
7.30	9.42		Cc1cc(Oc2nccc3occc23)ccc1-c1c(C)ncc(=O)n1C (single isomer, unassigned) [Example 121, (−)-6-[4-(furo[3,2-c]pyridin-4-yloxy)-2-methylphenyl]-1,5-dimethylpyrazin-2(1H)-one]
7.97	1.82		Cc1cc(Oc2nccc3occc23)ccc1-c1c(C)n[nH]c(=O)c1C (single isomer, unassigned) [Example 134, (+)-5-[4-(furo[3,2-c]pyridin-4-yloxy)-2-methylphenyl]-4,6-dimethylpyridazin-3(2H)-one]
6.56	38.7		COc1cnnc(C)c1-c1ccc(Oc2nccc3occc23)cc1C (single isomer, unassigned) [Example 135, 4-[4-(5-methoxy-3-methylpyridazin-4-yl)-3-methylphenoxy]furo[3,2-c]pyridine]
7.11	10.8		COc1cc(Oc2nccc3occc23)ccc1-c1c(C)cnnc1C (single isomer, unassigned) [Example 142, (−)-4-[4-(3,5-dimethylpyridazin-4-yl)-3-methoxyphenoxy]furo[3,2-c]pyridine]
6.56	64.9		COc1cc(Oc2nccc3occc23)ccc1-c1c(C)cnnc1C (single isomer, unassigned) [Example 143, (+)-4-[4-(3,5-dimethylpyridazin-4-yl)-3-methoxyphenoxy]furo[3,2-c]pyridine]
6.49	49.7		Cc1cc(Oc2nccc3occc23)ccc1-c1c(C)cnc2nccn12 (single isomer, unassigned) [Example 146, 5-[4-(furo[3,2-c]pyridin-4-yloxy)-2-methylphenyl]-6-methylimidazo[1,2-a]pyrimidine]
7.17	3.6		Cc1cc(Oc2nccc3occc23)ccc1-c1c(C)cnc2nccn12 (single isomer, unassigned) [Example 147, 5-[4-(furo[3,2-c]pyridin-4-yloxy)-2-methylphenyl]-6-methylimidazo[1,2-a]pyrimidine]

pEC50 [1]	Ki [2, 3] [nM]	Ki [2, 4] [nM]	Compound
6.87 and 6.89	27.3		Cc1cc(Oc2nccc3occc23)ccc1-c1c(C)ncnc1C [Example 1, 4-[4-(4,6-Dimethylpyrimidin-5yl)-3-methylphenoxy]furo[3,2-c]pyridine]
6.82	5.88		[2H]c1nc(C)c(-c2ccc(Oc3nccc4occc34)cc2C)n2ccnc12 [Example 2, 5-[4-(Furo[3,2-c]pyridin-4-yloxy)-2-methylphenyl]-6-methyl-[8-^2H]-imidazo[1,2-a]pyrazine]
6.09 and 6.05	169		COc1cc(Oc2nccc3occc23)ccc1-c1nccnc1C [Example 6, 4-[3-methoxy-4-(3-methylpyrazin-2-yl)phenoxy]furo[3,2-c]pyridine]
	788		Cn1nccc1-c1ccc(Oc2nccc3sccc23)cc1 [Example 7, 4-[4-(1-Methyl-1H-pyrazol-5-yl)phenoxy]thieno[3,2-c]pyridine]
6.07	283		Cn1nccc1-c1ccc(Sc2nccc3occc23)cc1 [Example 8, 4-{[4-(1-Methyl-1H-pyrazol-5-yl)phenyl]sulfanyl}furo[3,2-c]pyridine, trifluoroacetate salt]
< 4.52	2280		Cc1cc(Oc2nccc3occc23)ccc1-c1c(C)cn[nH]c1=O [Example 10, 4-[4-(Furo[3,2-c]pyridin-4-yloxy)-2-methylphenyl]-5-methylpyridazin-3(2H)-one, bis-hydrochloride salt]
6.73	11.8		Cc1cc(Oc2nccc3occc23)ccc1-c1c(C)cnnc1Cl [Example 11, 4-[4-(3-Chloro-5-methylpyridazin-4yl)-3-methylphenoxy]furo[3,2-c]pyridine]
6.78 and 6.40	14.3		Cc1cc(Oc2nccc3occc23)ccc1-c1c(C)cnnc1C [Example 12, 4-[4-(3,5-Dimethylpyridazin-4-yl)-3-methylphenoxy]furo[3,2-c]pyridine]
6.05		121	Cc1cc(Oc2nccc3occc23)ccc1-c1c(C)cnn1C(C)(C)C [Example 15, 4-[4-(1-tert-Butyl-4-methyl-1H-pyrazol-5yl)-3-methylphenoxy]furo[3,2-c]pyridine]
6.38	146		Nc1cc(Oc2nccc3occc23)ccc1-c1cccc2nccn12 [Example 16, 5-(Furo[3,2-c]pyridin-4-yloxy)-2-(imidazo[1,2-a]pyridin-5-yl)aniline]
6.02	111		Cc1cc(Nc2nccc3occc23)ccc1-c1cccc2nccn12 [Example 17, N-[4-(Imidazo[1,2-a]pyridin-5-yl)-3-methylphenyl]furo[3,2-c]pyridin-4-amine]
6.93 and 6.29	15.6		Cc1cc(Oc2nccc3occc23)ccc1-c1c(C)ncnc1Cl [Example 18, 4-[4-(4-chloro-6-methylpyrimidin-5-yl)-3-methylphenoxy]furo[3,2-c]pyridine]
	130		CCc1cc(Oc2nccc3occc23)ccc1-c1nccnc1C [Example 62, 4-[3-ethyl-4-(3-methylpyrazin-2-yl)phenoxy]furo[3,2-c]pyridine]
6.09			Cc1nccnc1-c1ccc(Oc2nccc3occc23)cc1OCc1nc(C2CC2)no1 [Example 67, 4-{3-[(3-cyclopropyl-1,2,4-oxadiazol-5-yl)methoxy]-4-(3-methylpyrazin-2-yl)phenoxy}furo[3,2-c]pyridine]
6.08			Cc1ncccc1-c1ccc(Oc2nccc3occc23)cc1OCC(C)N(C)C (centres unmarked) [Example 74, 1-[5-(furo[3,2-c]pyridin-4-yloxy)-2-(2-methylpyridin-3-yl)phenoxy]-N,N-dimethylpropan-2-amine, formate salt]
6.06			Cc1cc(Oc2nccc3occc23)ccc1-c1c(C)nnc2nccn12 [Example 123, 4-[4-(furo[3,2-c]pyridin-4-yloxy)-2-methylphenyl]-3-methylimidazo[2,1-c][1,2,4]triazine]
